Assay results taken from patent US20240424053A1, “METHODS AND COMPOSITIONS FOR PROVIDING MYOCARDIAL PROTECTION AND TREATING MYOCARDIAL STRESS AND FIBROSIS” (Tufts Medical Center, Inc., priority 2021, published 2024).
Entries after “also recorded” stand apart in the source; their conditions may differ. Read-outs that look alike come from different tables or passages of the source. Where a SMILES comes first, the peptide text is derived from it. The star is where a group is joined. Palmitoyl = CCCCCCCCCCCCCCCC(=O)*

Columns and labels:
[1] = target: T1, PAR1 (Mus musculus, UniProt P30558); assay: echocardiography after 3 days reperfusion following 30 min myocardial ischemia in mice; format: in vivo; conditions: 10 mg/kg sc once daily, n=4
T1 construct: endogenous in cells; host or cells: male C57BL/6N mice, in vivo
T1 sequence (P30558 22-430): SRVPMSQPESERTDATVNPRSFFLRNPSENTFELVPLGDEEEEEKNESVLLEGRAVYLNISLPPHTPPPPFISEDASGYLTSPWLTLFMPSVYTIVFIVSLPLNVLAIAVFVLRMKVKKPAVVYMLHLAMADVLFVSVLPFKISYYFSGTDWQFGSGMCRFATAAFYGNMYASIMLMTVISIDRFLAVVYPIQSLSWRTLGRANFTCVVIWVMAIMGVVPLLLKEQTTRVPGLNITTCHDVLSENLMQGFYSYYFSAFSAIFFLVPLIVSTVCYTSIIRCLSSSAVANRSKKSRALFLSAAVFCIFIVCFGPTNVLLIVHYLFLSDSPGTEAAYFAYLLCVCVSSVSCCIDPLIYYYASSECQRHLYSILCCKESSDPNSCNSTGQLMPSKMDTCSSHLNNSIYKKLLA
Protocol: A role of PAR1 in directly mediating cardiac ischemic myonecrosis—independent of established platelet-dependent effects (Strande et al., Basic Res. Cardiol. 102(4):350-358, 2007)—was also examined. […] Mice (n=7) were treated with vehicle or 10 mg/kg PZ-128 (subcutaneous; sc) just prior to ischemic injury. As shown in FIG. 1a-d, PZ-128-treated mice had 51-62% reductions in mean cardiac Infarct Area (p<0.01), Area At Risk (p<0.01), and Total Ischemic Area (p<0.0001) compared to vehicle-treated mice. […] Using echocardiography after 3 days of reperfusion, there was a significant increase in left ventricular mass (p<0.05) in vehicle compared to PZ-128 treated cohorts, with no difference in left ventricular mass between baseline and 3 days in the PZ-128 cohort (FIG. 2). […] Previous pharmacokinetic studies of subcutaneously administered PZ-128 in mice were the basis of this 10 mg/kg dose in mice (Cisowski et al., Am. J. Pathol. 179(1):513-523, 2011), selected to match the 0.3-0.5 mg/kg doses administered in humans.
A subset of male C57BL6N mice from each group subjected to 30 min left coronary artery ischemia (FIGS. 1A-1E) were reperfused for 3 days (n=4 vehicle, n=4 10 mg/kg PZ-128 sc once daily).

[2] = target: T1, PAR1; assay: thoracic aortic constriction (TAC) LV pressure overload model of HFrEF in mice; format: in vivo
Protocol: Male C57BL/6N mice were treated daily for 7 weeks with vehicle or 10 mg/kg PZ-128 sc following 25G transaortic constriction (TAC) or sham surgery (Richards et al., Scientific Reports 9(1):5844, 2019) (n=5-7). (FIG. 4A) Photomicrographs of interstitial fibrosis in cardiac sections stained with sirius red from Sham and TAC animals treated with Veh or PZ-128. (FIG. 4B) Interstitial collagen area from animals in A was quantified along with (FIG. 4C) Col1a1 expression by Q-PCR. (FIGS. 4D-4E) LV fractional shortening and ejection fraction were quantified by ECHO. (FIG. 4F) The outline of cardiomyocytes was identified by wheat germ agglutinin (WGA-green) staining with (FIG. 4G) mean myocyte area digitally quantified. (FIG. 4H) Mean weight (mg) of LV normalized to tibia length (mm).
(FIG. 5A) Photomicrographs of CD11 b+monocytes/macrophages and CD4+ T cells in Sham vs TAC in mice treated with vehicle or PZ-128 as in FIGS. 4A-4H, with CD11 b staining area quantified in FIG. 5B and T cells quantified in FIG. 5C.
TAC vs Sham mice were treated for 7 weeks with vehicle or PZ-128, and cardiac fibrosis and LV hypertrophy indices measured. […] This may indicate that unlike upstream thrombin (Dong et al., Thromb. Res. 159:58-64, 2017) or factor Xa (Yurista et al., Cardiovasc. Drugs Ther. 35(5):953-963, 2021) blockade, inhibition of PAR1 may effectively suppress cardiac hypertrophy by reducing the total ventricular mass, potentially by reducing MMP1-PAR1 driven fibrosis/remodeling and cardiac fibroblast expansion.
To obtain additional data to support PAR1 as a potentially important contributor to HF pathogenesis via inflammation, we investigated the effect of PZ-128 on monocyte/macrophage and CD4+ T cells in the 7-week TAC LV pressure overload model. As shown in FIGS. 5A-5B, there was a marked amount of CD11 b+monocytes/macrophages in the cardiac tissue from the TAC animals which was suppressed by nearly 90% by PZ-128 treatment.

[3] = target: T2, PAR1 (Homo sapiens, UniProt P25116); conditions: cited from earlier work
T2 construct: delivered intravenously in 100 patients with coronary artery disease (CAD) and acute coronary syndrome (ACS) undergoing cardiac catheterization; endogenous in cells; host or cells: patients of the TRIP-PCI trial (platelets ex vivo; whole body in vivo)
T2 sequence (P25116 22-425): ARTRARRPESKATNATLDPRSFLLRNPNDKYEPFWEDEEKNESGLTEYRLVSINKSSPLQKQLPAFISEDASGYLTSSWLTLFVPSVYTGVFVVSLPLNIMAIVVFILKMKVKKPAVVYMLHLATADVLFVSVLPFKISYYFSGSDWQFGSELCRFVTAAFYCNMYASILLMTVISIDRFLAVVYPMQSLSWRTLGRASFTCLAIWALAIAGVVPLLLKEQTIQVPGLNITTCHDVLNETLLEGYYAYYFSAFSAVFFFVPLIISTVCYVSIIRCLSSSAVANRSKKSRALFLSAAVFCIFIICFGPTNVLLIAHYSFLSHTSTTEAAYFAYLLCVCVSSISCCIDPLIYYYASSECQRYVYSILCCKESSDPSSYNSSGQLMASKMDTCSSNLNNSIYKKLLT

[4] = 7 weeks, Q-PCR relative to GAPDH mRNA, preliminary

Q: With CCCCCCCCCCCCCCCC(=O)N[C@@H](CCCCN)C(=O)N[C@@H](CCCCN)C(=O)N[C@@H](CO)C(=O)N[C@@H](CCCNC(=N)N)C(=O)N[C@@H](C)C(=O)N[C@@H](CC(C)C)C(=O)N[C@@H](Cc1ccccc1)C(N)=O [PZ-128, Palmitate-KKSRALF-NH2] (Palmitoyl-KKSRALF-NH2) as the compound, how does the “ejection fraction at 3 days compared to baseline” value [1] read?
A: no significant reductions; also recorded: maintained baseline

Q: What about the “fractional shortening at 3 days compared to baseline” value [1] of the same compound?
A: no significant reductions; also recorded: maintained baseline

Q: What about the “left ventricular mass, baseline vs 3 days” value [1] of the same compound?
A: no difference; also recorded: no significant differences

Q: What about the “LV mass (adjusted for tibia length)” value ([2]; 10 mg/kg sc daily for 7 weeks) of the same compound?
A: highly significant protective effect

Q: And the “TAC-induced loss in ejection fraction by ECHO” value ([2]; 10 mg/kg sc daily for 7 weeks)?
A: significant protective effects

Q: What about the “TAC-induced loss in fractional shortening by ECHO” value ([2]; 10 mg/kg sc daily for 7 weeks) of the same compound?
A: significant protective effects

Q: And the “interstitial collagen (cardiac fibrosis) relative to vehicle” value ([2]; 10 mg/kg sc daily for 7 weeks)?
A: dramatic anti-fibrotic effects

Q: And the “suppression of the increase in mean myocyte cross-sectional area” value ([2]; 10 mg/kg sc daily for 7 weeks)?
A: no effect

Q: And the “Col1A1 expression relative to vehicle” value ([2]; 10 mg/kg sc daily for 7 weeks, Q-PCR)?
A: dramatic anti-fibrotic effects

Q: What about the “suppression of CD11b+ monocytes/macrophages in cardiac tissue” value ([2]; 7 weeks) of the same compound?
A: ~90%

Q: What about the CTGF gene expression [2, 4] of the same compound?
A: reduces expression

Q: What about the Cyr61 gene expression [2, 4] of the same compound?
A: reduces expression

Q: And the IL-6 gene expression [2, 4]?
A: reduces expression

Q: What about the TGFβ gene expression [2, 4] of the same compound?
A: reduces expression

Q: And the TNFα gene expression [2, 4]?
A: reduces expression

Q: And the “T cell infiltration (CD4+)” value ([2]; 7 weeks, vehicle mice significant increases)?
A: non-significant increases

Q: And the “overall safety and tolerability” value ([3]; 0.3 and 0.5 mg/kg, single 2-h intravenous infusion, 100 patients)?
A: safe and well-tolerated

Q: And the “hazard ratio of a MACE/myonecrosis event versus placebo” value ([3]; PZ-128 treated groups, nonsignificant decrease)?
A: 0.81

Q: And the “major adverse coronary events (MACE)” value ([3]; at 30 days, combined PZ-128 dose groups (placebo 6%, P=0.13))?
A: 0%

Q: What about the “major adverse coronary events (MACE)” value ([3]; at 90 days, combined PZ-128 dose groups (placebo 6%, P=0.29)) of the same compound?
A: 2%

Q: What about the “MACE and myocardial injury within 30 days” value ([3]; subgroup with elevated baseline cardiac troponin I (placebo 83%, P=0.02)) of the same compound?
A: 31%

Q: What about the “primary safety endpoint: bleeding vs vehicle” value ([3]; up to 30 days posttreatment) of the same compound?
A: not significantly different
